Legend:
[1] = test system: U87 intracranial xenografts; assay: Histological analysis and TUNEL of intracranial tumor sections; assay type: in vivo, nude mice; details: day 7
Method: In a second experiment, mice were randomized into eight groups (untreated control (UTC); intratumoral (IT) Ad.Egr-TNF alone; intraperitoneal (IP) TMZ alone; IR alone; Ad.Egr-TNF and TMZ; Ad.Egr-TNF and IR; TMZ and IR; and Ad.Egr-TNF, TMZ and IR). A single dose of 5×10^5 U87 cells was inoculated into the right caudate nucleus of each mouse on day 0 using a screw guide technique (Lal, S. et al. (2000) J Neurosurg 92:326-333). On day 5, 5×10^8 pu Ad.Egr-TNF in 5 μL volume was injected once via the screw guide directly into the tumor. Beginning two hours after vector injection, 5 Gy IR was delivered to the tumor area and repeated every 2-3 days to a total of 30 Gy. TMZ (5 mg/kg) was given IP 3 h after vector inoculation and like doses were given daily for the next two days for a total dose of 15 mg/kg. Control animals received SFM IT and IP and were also placed in Lucite chambers. Daily assessment of animal appearance was made. […]
Paraffin embedded brains were sectioned (8 μm), stained with hematoxylin and eosin and analyzed in a blinded fashion.
Terminal deoxynucleotidyl transferase-mediated dUTP-biotin nick end-labeling (TUNEL) assay was performed in accordance with the manufacturer's instructions (Chemicon) and analyzed blindly at 400× magnification by use of a computer-aided light microscope with reconstruction software (Neurolucida, Microbrightfield, Vt.). […]

[2] = test system: NF-κB in Panel pancreatic cancer cells; assay: NF-κB-responsive luciferase reporter assay, Panel; assay type: cell-based, human
U87 hindlimb xenografts = assay: TNFα induction in vivo in hindlimb xenografts; set-up: species or system nude mice
Method: U87 cells (5×10^6) in […] were injected subcutaneously (sc) into the right hindlimb of nude mice. When tumors reached an average size of 200 mm^3 (length×width×thickness/2), the tumor-bearing mice were randomized into 4 groups: 1. Untreated Control (UTC); 2. Ad.Egr-TNF alone; 3. TMZ alone; 4. Ad.Egr-TNF and TMZ. Ad.Egr-TNF was injected intratumorally (IT) at a dose of 2×10^8 particle units (pu) each day. Two doses of TMZ were given: 2.5 mg/kg/day and 5 mg/kg/day by intraperitoneal (IP) injection 3 h after vector. Four consecutive daily IT and IP injections were given, control animals received IT and IP serum free medium (SFM). Animals were euthanized on day 2 and 4 (i.e., 48 h and 96 h after treatment initiation), tumors harvested, snap-frozen in liquid nitrogen and homogenized in RIPA buffer (150 mM NaCl, 10 mM Tris at pH 7.5, 5 mM EDTA at pH 7.5, […], 1 μg/mL leupeptin, and 2 μg/mL aprotinin). Protein was isolated and concentration measured using Protein Assay reagent (Bio-Rad Laboratories, Hercules, Calif.). TNFα levels in the supernatants were measured as described above.

[3] = test system: U87 cells infected with Ad.Egr-TNF; assay: TNFα induction in vitro (Quantikine ELISA of conditioned media); assay type: cell-based, human
Method: 10^6 U87 cells were plated and incubated overnight. The cells were then infected with Ad.Egr-TNF at a multiplicity of infection (MOI) of 100 for 3 h at 37° C. After incubation, 3.8 mL of complete media with or without TMZ was added. Conditioned media were harvested at 48 h after treatment and human TNFα production was quantified using a Quantikine ELISA kit (R&D System Inc., Minneapolis, Minn.).

[4] = test system: NF-κB in MIAPaCa-2 pancreatic cancer cells; assay: NF-κB-responsive luciferase reporter assay, MIAPaCa-2; assay type: cell-based, human
[5] = test system: NF-κB in Seg-1 esophageal cancer cells; assay: NF-κB-responsive luciferase reporter assay, Seg-1; assay type: cell-based, human

Question: With `Cn1nnc2c(C(N)=O)ncn2c1=O` [TMZ, temozolomide] as the molecule, how does the TUNEL positive cells [1] read?
Answer: 14±12 TUNEL^+ cells/10^−6 mm^2

Question: And the “TNFα-induced NF-κB transcriptional activity” value [2]?
Answer: activated

Question: And the “TNF detection in vivo” value (U87 hindlimb xenografts)?
Answer: No TNF was detected

Question: And the “TNFα detection in vitro” value [3]?
Answer: TNFα was detected

Question: What about the “increase in TNFα expression compared to cells infected with vector alone” value ([3]; U87 cells infected with Ad.Egr-TNF (MOI 100), 100 μM TMZ, 48 h) of the same molecule?
Answer: 2.3 fold

Question: And the “TNFα-induced NF-κB transcriptional activity” value [4]?
Answer: activated

Question: What about the “TNFα-induced NF-κB transcriptional activity” value [5] of the same molecule?
Answer: activated

— patent US20110091375A1, “USE OF THE COMBINATION COMPRISING TEMOZOLOMIDE AND TNF-ALPHA FOR TREATING GLIOBLASTOMA” (THE UNIVERSITY OF CHICAGO, priority 2004, published 2011)
